Results published in article PMC4177916, “Characterization of the Sterol and Phosphatidylinositol 4-Phosphate Binding Properties of Golgi-Associated OSBP-Related Protein 9 (ORP9)” (PLoS ONE, 2014).
Substitutions are numbered along the chain they refer to.

What was measured:
Format in all cases: binding
ORP9S = biological target: T1, ORP9S (Homo sapiens, UniProt Q96SU4); test: […]PI-4P extraction from liposomes, sedimentation; details: pH 7.4, 25 °C, 20 min; 0.1 mM liposomes with 0.5 mol% PI-4P; labelled compound
T1 construct: gene OSBPL9; short variant lacking N-terminal PH domain, His-tagged
T1 sequence (Q96SU4 100-736 limits assumed): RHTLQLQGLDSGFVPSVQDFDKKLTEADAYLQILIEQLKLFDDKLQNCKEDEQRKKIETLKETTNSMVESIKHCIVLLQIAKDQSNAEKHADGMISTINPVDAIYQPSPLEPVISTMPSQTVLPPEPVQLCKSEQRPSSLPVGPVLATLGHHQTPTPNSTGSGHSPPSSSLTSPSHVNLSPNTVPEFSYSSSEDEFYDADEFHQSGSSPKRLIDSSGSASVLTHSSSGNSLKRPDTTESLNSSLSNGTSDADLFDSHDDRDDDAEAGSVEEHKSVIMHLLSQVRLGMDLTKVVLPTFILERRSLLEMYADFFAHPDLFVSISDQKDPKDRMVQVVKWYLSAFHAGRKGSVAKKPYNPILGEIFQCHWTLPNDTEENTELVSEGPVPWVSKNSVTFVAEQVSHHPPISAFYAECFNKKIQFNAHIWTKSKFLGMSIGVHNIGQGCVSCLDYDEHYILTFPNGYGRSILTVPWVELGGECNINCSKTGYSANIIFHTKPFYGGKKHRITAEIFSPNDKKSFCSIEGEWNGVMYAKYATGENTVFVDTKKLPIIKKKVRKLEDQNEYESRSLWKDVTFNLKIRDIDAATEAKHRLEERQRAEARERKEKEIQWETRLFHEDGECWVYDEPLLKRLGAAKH

ORP9L [1] = biological target: T2, ORP9L (Homo sapiens, UniProt Q96SU4); test: as above; details: pH 7.4, 25 °C, 20 min; 0.1 mM liposomes with 0.5 mol% PI-4P; labelled compound
T2 construct: gene OSBPL9; full-length long variant, C-terminal V5-His tag (stated for the HH/AA mutant)
T2 sequence (Q96SU4 2-736): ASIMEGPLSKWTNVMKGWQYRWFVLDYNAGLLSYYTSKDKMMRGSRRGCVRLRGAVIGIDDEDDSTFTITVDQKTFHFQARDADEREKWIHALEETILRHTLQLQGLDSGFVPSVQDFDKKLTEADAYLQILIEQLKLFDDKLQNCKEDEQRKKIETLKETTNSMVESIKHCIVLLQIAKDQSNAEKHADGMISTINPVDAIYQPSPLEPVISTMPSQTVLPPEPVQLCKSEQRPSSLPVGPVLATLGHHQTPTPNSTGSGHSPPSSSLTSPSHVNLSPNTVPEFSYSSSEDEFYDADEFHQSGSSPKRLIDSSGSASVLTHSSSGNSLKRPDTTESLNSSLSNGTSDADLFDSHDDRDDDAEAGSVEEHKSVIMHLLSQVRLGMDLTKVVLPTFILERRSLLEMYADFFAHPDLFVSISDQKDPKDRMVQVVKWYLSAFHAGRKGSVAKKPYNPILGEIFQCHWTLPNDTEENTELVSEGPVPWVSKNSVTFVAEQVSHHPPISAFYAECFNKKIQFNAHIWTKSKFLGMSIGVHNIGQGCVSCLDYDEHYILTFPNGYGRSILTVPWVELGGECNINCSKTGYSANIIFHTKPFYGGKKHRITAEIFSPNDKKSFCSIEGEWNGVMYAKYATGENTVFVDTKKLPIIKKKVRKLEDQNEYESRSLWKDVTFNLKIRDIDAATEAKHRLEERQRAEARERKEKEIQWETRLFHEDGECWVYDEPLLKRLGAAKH

ORP9L [2] = biological target: T3, ORP9L (Homo sapiens, UniProt Q96SU4, H501A/H502A, form not given); test: as above; details: 100 pmol protein; pH 7.4, 25 °C, 20 min; labelled compound
T3 construct: gene OSBPL9; full-length long variant, C-terminal V5-His tag (stated for the HH/AA mutant)
T3 sequence (Q96SU4 2-736 H501A/H502A): T2 sequence (Q96SU4 2-736) with H500A, H501A

ORP9L [3] = biological target: T2, ORP9L; test: inhibition of CTL extraction from liposomes (FRET); details: equimolar cholesterol and CTL (2.5 mol% each); pH 7.4, 30 °C
Osh6 = biological target: T4, Osh6 (Saccharomyces cerevisiae, UniProt Q02201); test: [3H]PS extraction from liposomes, sedimentation; details: 100 pmol protein; pH 7.4, 25 °C, 20 min; labelled compound
T4 construct: hexahistidine-SUMO3-tagged, expressed in bacteria
T4 sequence (Q02201 1-448): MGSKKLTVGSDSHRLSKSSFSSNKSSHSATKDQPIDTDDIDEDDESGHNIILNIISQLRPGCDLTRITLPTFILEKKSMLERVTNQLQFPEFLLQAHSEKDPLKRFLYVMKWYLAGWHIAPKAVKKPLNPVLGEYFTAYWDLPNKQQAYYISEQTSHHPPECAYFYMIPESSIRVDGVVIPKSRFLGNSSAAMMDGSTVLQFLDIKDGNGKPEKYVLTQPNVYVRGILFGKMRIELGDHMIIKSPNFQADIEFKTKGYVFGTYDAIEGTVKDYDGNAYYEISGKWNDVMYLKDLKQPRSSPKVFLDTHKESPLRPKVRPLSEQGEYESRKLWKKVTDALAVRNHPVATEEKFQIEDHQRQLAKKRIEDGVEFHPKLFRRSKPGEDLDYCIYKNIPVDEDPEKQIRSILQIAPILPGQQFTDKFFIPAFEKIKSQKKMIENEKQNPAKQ

For PI-4P, the “% extraction” value (ORP9S) was 14%, the “% maximal extraction” value (ORP9L [1]) was 9% and the “% reduction of extraction versus wild type” value (ORP9L [2]) was over 75%.

For `CC(C)CCC[C@@H](C)[C@H]1CC[C@H]2[C@@H]3CC=C4C[C@@H](O)CC[C@]4(C)[C@H]3CC[C@]12C` [cholesterol], the “% inhibition of CTL extraction” value (ORP9L [3]) was 50%.

For phosphatidylserine, the “% extraction” value (Osh6) was ~ 2%.
